# From patent US20250255941A1 (priority 2021, published 2025)
# Values joined by “and” are separate entries in the source; they are usually repeats but may differ in a detail not shown here. Equal entries are not always repeated.
# What was measured:
# prostaglandin F2a = type: cell-based; details: 5 μM
# Keratinocytes = details: 5 μM
smiles,measurement,setting,value
CS(=O)(=O)Nc1ccc([N+](=O)[O-])cc1OC1CCCCC1 [NS-398],"Absorbance value (405 nm), individual measurements (n=4)",prostaglandin F2a,0.6170 and 0.6000 and 0.6110 and 0.6220
same,"PGF2alpha (pg/mL), individual measurements (n=4)",prostaglandin F2a,70.9 pg/mL and 86.8 pg/mL and 76.1 pg/mL and 66.8 pg/mL
same,"PGF2alpha (pg/mL)/MTT, Mean",prostaglandin F2a,86.3 (pg/mL)/MTT
same,"PGF2alpha (pg/mL)/MTT, individual measurements (n=4)",prostaglandin F2a,81.5 (pg/mL)/MTT and 101.6 (pg/mL)/MTT and 86.6 (pg/mL)/MTT and 75.4 (pg/mL)/MTT
same,"prostaglandin F2a expression, % of control",prostaglandin F2a,9.3%
same,"Cytotoxicity test (MTT), % of control",Keratinocytes,102.0%
same,"Cytotoxicity test (MTT), Mean",Keratinocytes,0.8720
